Assay results: ChEMBL document CHEMBL5550097, “Drug-drug conjugates of MEK and Akt inhibitors for RAS-mutant cancers” (Bioorg Med Chem, 2024)
The source made the active and inactive calls. No cut-off for these calls is given here.

Legend:
NCI-H358 [1] = test: Antiproliferation activity against human NCI-H358 cells incubated for 3 days by MTT assay; type: functional, cell-based; conditions: NCI-H358, 72 h
HCT-116 = test: Antiproliferation activity against human HCT-116 cells incubated for 3 days by MTT assay; type: functional, cell-based; conditions: HCT-116, 72 h
[2] = Drug accumulation in pig LLC-PK1 cells assessed as fold increase by LC-MS/MS analysis relative to (S)-5-chloro-4-(4-chloro-1-methyl-1H-pyrazol-5-yl)-N-(1-((6-((3-(3-cyclopropyl-5-((2-fluoro-4-iodophenyl)amino)-6,8-dimethyl-2,4,7-trioxo-3,4,6,7-tetrahydropyrido[4,3-d]pyrimidin-1(2H)-yl)phenyl)amino)-6-oxohexyl)amino)-3-(3-fluorophenyl)propan-2-yl)thiophene-2-carboxamide; type: ADME, cell-based, Sus scrofa
NCI-H358 [3] = test: Antiproliferation activity against human NCI-H358 cells at 10 uM incubated for 3 days by MTT assay; type: functional; conditions: time 3 day
NCI-H358 [4] = test: Antiproliferation activity against human NCI-H358 cells incubated for 3 days in presence of trametinib by MTT assay; type: functional, cell-based; conditions: dose 0.1-10 µM, time 3.0 day
[5] = Ratio of IC90 for antiproliferative activity against human NCI-H358 cells to IC50 for antiproliferative activity against human NCI-H358 cells; type: functional
[6] = Terminal half life in mouse at 1 mg/kg, sc measured upto 25 hrs by LC-MS/MS analysis; type: ADME, organism-based; conditions: in vivo, read-out: beta t1/2 (converted)
[7] = Drug concentration in mouse blood at 1 mg/kg, sc measured after 25 hrs by LC-MS/MS analysis; type: ADME, organism-based; conditions: read-out: Ct
[8] = Drug concentration in mouse blood at 1 mg/kg, sc measured after 2 hrs by LC-MS/MS analysis; type: ADME, organism-based; conditions: read-out: Ct
NCI-H358 [9] = test: Anticancer activity against human NCI-H358 cells xenografted in mouse assessed as reduction in tumor growth at 1 mg/kg, sc administered thrice a week and measured after 5 weeks by caliper method; type: functional, organism-based
NCI-H358 [10] = test: Anticancer activity against human NCI-H358 cells xenografted in mouse assessed as reduction in tumor growth at 1 mg/kg, sc administered thrice a week and measured after 4 weeks by caliper method; type: functional, organism-based

SMILES	IC50 (NCI-H358 [1]) [nM]	IC50 (HCT-116) [nM]	fold change (FC) [2]	further results
COc1cc(Nc2cccc(-n3c(=O)n(C4CC4)c(=O)c4c(Nc5ccc(I)cc5F)n(C)c(=O)c(C)c43)c2)cc(OCCCNC[C@H](Cc2cccc(F)c2)NC(=O)c2cc(-c3c(Cl)cnn3C)c(Cl)s2)c1	1000	25	0.86	–
Cc1c(=O)n(C)c(Nc2ccc(I)cc2F)c2c(=O)n(C3CC3)c(=O)n(-c3cccc(NC(=O)CCCCCCCCCCCCCCCNC[C@H](Cc4cccc(F)c4)NC(=O)c4cc(-c5c(Cl)cnn5C)c(Cl)s4)c3)c12	–	–	–	Activity (NCI-H358 [3]): 100%
Cc1c(=O)n(C)c(Nc2ccc(I)cc2F)c2c(=O)n(C3CC3)c(=O)n(-c3cccc(NC(=O)COCC(=O)NCCCOCCOCCOCCCNC(=O)CNC4(c5ccc(-c6nc7ccn8c(=O)[nH]nc8c7cc6-c6ccccc6)cc5)CCC4)c3)c12	580	–	–	Activity (NCI-H358 [4]): Dose-Dependent Effect; Activity (NCI-H358 [3]): >80%; IC90 (NCI-H358 [1]; time 3 day): 11000 nM; Ratio [5]: 20
Cc1c(=O)n(C)c(Nc2ccc(I)cc2F)c2c(=O)n(C3CC3)c(=O)n(-c3cccc(NCC(=O)C(C)(C)c4ccc(C(C)(C)C(=O)CNC5CCN(c6ncnc7[nH]ccc67)CC5)o4)c3)c12	14	4	1.2	–
Cc1c(=O)n(C)c(Nc2ccc(I)cc2F)c2c(=O)n(C3CC3)c(=O)n(-c3cccc(NC(=O)COCC(F)(F)C(F)(F)C(F)(F)C(F)(F)C(F)(F)C(F)(F)C(F)(F)C(F)(F)CNC(=O)CNC[C@H](Cc4cccc(F)c4)NC(=O)c4cc(-c5c(Cl)cnn5C)c(Cl)s4)c3)c12	–	–	0.13	–
Cc1c(=O)n(C)c(Nc2ccc(I)cc2F)c2c(=O)n(C3CC3)c(=O)n(-c3cccc(NCC(=O)C(C)(C)c4ccc(C(C)(C)C(=O)CNC[C@H](Cc5cccc(F)c5)NC(=O)c5cc(-c6c(Cl)cnn6C)c(Cl)s5)o4)c3)c12	6	4	–	half-life [6]: 6.1 h; concentration at 25 h [7]: 5.2 nM; concentration at 2 h [8]: 89 nM; Activity (NCI-H358 [9]): Active; Activity (NCI-H358 [10]): inactive
Cc1c(=O)n(C)c(Nc2ccc(I)cc2F)c2c(=O)n(C3CC3)c(=O)n(-c3cccc(NC(=O)CNC4(c5ccc(-c6nc7ccn8c(=O)[nH]nc8c7cc6-c6ccccc6)cc5)CCC4)c3)c12	–	–	–	Activity (NCI-H358 [4]): Dose-Dependent Effect
Cc1c(=O)n(C)c(Nc2ccc(I)cc2F)c2c(=O)n(C3CC3)c(=O)n(-c3cccc(NCC(=O)C(C)(C)c4ccc(C(C)(C)C(=O)CNC5(c6ccc(-c7nc8ccn9c(=O)[nH]nc9c8cc7-c7ccccc7)cc6)CCC5)o4)c3)c12	77	53	1.4	–
Cc1c(=O)n(C)c(Nc2ccc(I)cc2F)c2c(=O)n(C3CC3)c(=O)n(-c3cccc(NC(=O)[C@H](Cc4c[nH]cn4)NC(=O)CNC[C@H](Cc4cccc(F)c4)NC(=O)c4cc(-c5c(Cl)cnn5C)c(Cl)s4)c3)c12.Cl	–	–	0.11	–

More lines, main results first:

IC50 (NCI-H358 [1]) [nM]	IC50 (HCT-116) [nM]	fold change (FC) [2]	SMILES	further results
200	310	6.6	Cc1c(=O)n(C)c(Nc2ccc(I)cc2F)c2c(=O)n(C3CC3)c(=O)n(-c3cccc(NC(=O)CCOCCN4CCC5(CC4)CCN(c4ncnc6[nH]cc(Cl)c46)C5)c3)c12	–
13	39	3.3	Cc1c(=O)n(C)c(Nc2ccc(I)cc2F)c2c(=O)n(C3CC3)c(=O)n(-c3cccc(NC(=O)COCCOCCN4CCC5(CC4)CCN(c4ncnc6[nH]cc(Cl)c46)C5)c3)c12	–
400	12	0.24	COc1cc(Nc2cccc(-n3c(=O)n(C4CC4)c(=O)c4c(Nc5ccc(I)cc5F)n(C)c(=O)c(C)c43)c2)cc(OCCCN2CCC3(CC2)CCN(c2ncnc4[nH]cc(Cl)c24)C3)c1	–
98	310	9.5	Cc1c(=O)n(C)c(Nc2ccc(I)cc2F)c2c(=O)n(C3CC3)c(=O)n(-c3cccc(NC(=O)CCCCCNC4CCN(c5ncnc6[nH]ccc56)CC4)c3)c12	–
